This note sets out measurements from patent publication US20070155827A1, “USE OF BENZO-FUSED HETEROCYCLE SULFAMIDE DERIVATIVES FOR THE TREATMENT OF DEPRESSION” (priority 2005, published 2007).

The subject of one assay is Male Sprague Dawley rats. Put plainly: Forced Swim Test (Acute), FST. It is filed as in vivo. The procedure:
The Forced Swim test (FST) is a commonly used procedure to screen compounds for possible antidepressant properties. This test is also known as the behavioral despair test. Rodents placed in […] tanks filled with water present a wide variety of escape or immobility behaviors. Antidepressant drugs from different classes markedly increase escape behaviors and/or decrease latency or duration of immobility.
Venlafaxine and desipramine were dissolved in water. All drugs and their vehicles were administered orally (p.o.) by gavage in a volume of 5 mL/kg.
Male Sprague Dawley rats (140 to 160 g) from Charles River Laboratories Wilmington, Mass. were used. The animals went through a five-day quarantine period before being subjected to the experimental procedure.
Animals were housed in groups of four in plastic cages at an ambient temperature of 21° C. to 23° C. with an automated 12 hour light/dark cycle and access to water and commercial rodent food ad libitum. Animals were not handled more than for the routine bedding change prior to pre-test swim session.
Each experiment consisted of seven treatment groups with n=4 animals per group. A total of 28 animals per experiment were used. Two consecutive experiments (1 and 2, 3 and 4, and 5 and 6) were exact replicas of each other. […] One treatment group of n=4 animals in each experiment was a vehicle treated group. […] In experiments 5 and 6 the effects of venlafaxine and maprotyline at 12 mg/kg, 30 mg/kg, and 60 mg/kg were tested.
The basic apparatus consisted of a cylinder (46 cm tall×˜20 cm diameter) filled with water to 30 cm deep, at a temperature of 25±1° C. The automated version of the FST was used to perform the experiments. Plumbing for automatic filling and emptying water connected the four cylinders. Cylinders were placed in the dividing chambers 25 cm wide to separate animals visually. Each 5-minute experimental session was videotaped and analyzed in real time by computer software (Clever Systems, Inc.) for four animals at a time. The immobility, swimming, climbing and escape times were recorded by the software. The four activities are defined as follow. Immobility: the animal floats motionlessly or makes only those movements necessary to keep its head above water; Climb: the animal vigorously moves vertically while scratching the wall around the cylinder; Swim: the animal moves horizontally around in the cylinder more than necessary to keep its head above water; and Escape: sum of all vigorous active movements.
The ability of a test compound to decrease the duration or frequency of immobility, or changes in swimming, climbing and escape times, was measured using the FST procedure described above. […] The analysis of the results in the studies described was focused on the immobility time during 5-minute test session.
There were two swim sessions in each experiment. First, a pre-test swim session for 15 minutes was performed. Following 48 hours later was a test session of 5-minute duration. Upon completion of a swim session, each animal was placed under a heat lamp in a cage with soft bedding for approximately 15 minutes to prevent hypothermia.
Animals were pre-treated with a vehicle or test compound after completing the pre-test swim session, then 24 hours later and then shortly prior to the 5-minute test session; i.e., three injections were given to each animal between the two swim sessions that occurred on 3 consecutive days.
Data were analyzed using GraphPad Prism software (GraphPad Software, Inc. San Diego, Calif.). For the comparison of the effect of different doses for various drugs on immobility in the FST one-way ANOVA was used followed by Dunnett's multiple comparison test. […] The ED50 and Emax values were statistically compared using two-tail t-test.

A further assay has as its system Male Wistar rats. Put plainly: Chronic Mild Stress Model (Chronic), sucrose consumption. In kind it is in vivo. The conditions noted are these: stressed animals, once daily i.p. An excerpt:
In the chronic mild stress (CMS) model rats subjected to a variety of mild stressors for a prolonged period of time show, among other behavioural, biochemical and physiological impairments, a substantial decrease in their responsiveness to rewarding stimuli. This deficit is usually monitored by a decrease in the consumption of the 1% sucrose solution, but can also be seen in other tests, such as place preference conditioning or intracranial self-stimulation. Since the subsensitivity to reward appears to reflect anhedonia (inability to experience pleasure), which is a core symptom of major depressive disorders, the CMS procedure may serve as a suitable research tool in studies into the mechanisms of antidepressant action.
Male Wistar rats were brought into the laboratory two months before the start of the experiment. Except as described below, the animals were singly housed with food and water freely available, and were maintained on a 12-h light/dark and in a constant temperature (22±2° C.) and humidity (50±5%) conditions.
The animals were first trained to consume a 1% sucrose solution; training consisted of eight 1 h baseline tests in which sucrose was presented, in the home cage, following 14 h food and water deprivation; the sucrose intake was measured by weighing pre-weighed bottles containing the sucrose solution, at the end of the test. Subsequently, sucrose consumption was monitored, under similar conditions, at weekly intervals throughout the whole experiment.
On the basis of their sucrose intakes in the final baseline test, the animals were divided into two matched groups. One group of animals was subjected to the chronic mild stress procedure for a period of 7 consecutive weeks. Each week of stress regime consisted of: two periods of food or water deprivation, two periods of 45 degree cage tilt, two periods of intermittent illumination (lights on and off every 2 h), two periods of soiled cage (250 ml water in sawdust bedding), one period of paired housing, two periods of low intensity stroboscopic illumination (150 flashes/min), and three periods of no stress. All stressors were 10-14 h of duration and were applied individually and continuously, day and night. Control animals were housed in separate rooms and had no contact with the stressed animals. They were deprived of food and water for the 14 h preceding each sucrose test, but otherwise food and water were freely available in the home cage.
The drugs were administered at approx. 10.00 and the weekly sucrose tests were carried out 24 h following the last drug injections. […]
All results obtained in this study were analyzed by multiple analyses of variance with three between-subjects factors (stress/control, drug treatments and successive sucrose tests). […]

The test system of assay [1] is stressed and non-stressed animals. The assay is described as follows: Resident/Intruder Assay (Chronic Social Stress Assay). The conditions noted are these: Forced Swim Test, 10 mg/kg p.o. It is filed as in vivo. From the text: The behavioral resident/intruder assay is used to screen compounds for anti-depressant-like activity.
A further assay has as its system CH3/HeJ mice. Put plainly: Mouse Tail Suspension Assay (Acute), TST. It is filed as in vivo. The conditions noted are these: Mus musculus, po, 7 min, p.o., 7-min session. As to the method:
In the tail suspension test (TST) for evaluating compounds for anti-depressant activity, mice are suspended by their tails to a metal or plastic rod using clip or scotch tape. The test is usually quite short, 5-7 min, and the amount of time the mice spend immobile is recorded either manually or with an automated device. Agents which have antidepressant activity, decrease the duration of immobility of mice in this test.
The basic apparatus for the tail suspension assay consisted of a yellow plastic chamber (91×45×10 cm) divided for four arenas 25, 20, 20 and 25 cm wide separated by yellow plastic walls 0.75 cm thick. Mice were suspended by their tails using a rubber clip (7 cm long) attached to the plastic rod that was placed on the top of a testing chamber half way through its deep dimension. Each experimental session was videotaped and analyzed for four animals in the real time by computer software (“Depression Scan” Clever Sys Inc.). The computer justification of immobility was calibrated with the use of animals dosed with lorazepam while justification of movement was calibrated with the high dose of desipramine treated animals. Control, vehicle treated animals and animals treated with Compound #8 were analyzed under the calibrated settings. The settings were adjusted separately for dark (CH3/HeJ and C57Bl/6J strains) and white mice (Balb/cJ and A/J strains). A yellow background was used for dark mice and a blue background was used to record movements of white mice.
The ability of a test compound to decrease the duration of immobility, or increase mobility was measured using the TST procedure described above. Acute treatment with clinically effective antidepressants and/or novel compounds that have potential antidepressant properties decrease the duration of immobility and at the same time increases mobility in the TST.
Data were analyzed using GraphPad Prism software (GraphPad Software, Inc. San Diego, Calif.). For the comparison of the effect of different doses for various drugs on immobility in the TST one-way analyses of variance (ANOVA) were used followed by Dunnett's multiple comparison test. […] The ED50 and Emax values were compared using two-way ANOVA and Bonferroni post-hoc test.
Positive controls included duloxetine (DLX), venlafaxine (VLX)and desipramine (DMI) which were dissolved in 0.5% methylcellulose and lorazepam (LOR) which was suspended in 0.5% of methylcellulose in water by sonication. All drugs and vehicles were administered orally (p.o.) by gavage in a volume of 10 mL/kg.
The mice were ordered 5 weeks old and at the beginning of experiment their weight was 20±5 g. Animals were housed in groups of four in plastic cages at an ambient temperature of 21° C. to 23° C. with an automated 12/12 hours light/dark cycle and access to water and a commercial rodent food ad libitum.
Each experiment consisted of seven treatment groups with four animals per group. A total of 28 animals per experiment were used. Every two consecutive experiments (1 & 2, 3 & 4, 5 & 6 and 7 & 8) were exact replicas of each other. […] One treatment group of four animals in each experiment was a vehicle treated group. In addition to the vehicle treated group, the effects of DMI at 6 mg/kg, 12 mg/kg, 30 mg/kg, 60 mg/kg and 120 mg/kg and LOR at 5 mg/kg were tested in experiments 1 and 2. […] In experiments 5 and 6 the effects of DLX at 6 mg/kg, 12 mg/kg, 30 mg/kg, 60 mg/kg, 120 mg/kg and LOR at 5 mg/kg were tested. […]

The subject of another assay is submissive rats. Put plainly: Dominant-Submissive Relations (DSR) assay: Reduction of Submissive Behavior Model (RSBM) of depression. It is filed as in vivo, Male Sprague Dawley rats. Particulars: 10.0 mg/kg i.p. The procedure: The DSR assay is divided into two models: Reduction of Dominant Behavior Model (RDBM) of mania and Reduction of Submissive Behavior Model (RSBM) of depression. The RDBM, wherein the dominant animals are treated with test compound, is predictive of the ability of the test compound to treat mania. The RSBM, wherein the submissive animals are treated with test compound, is predictive of the ability of the test compound to treat depression.
Male Sprague Dawley rats (140 to 160 g) from Charles River Laboratories Wilmington, Mass. were used in this assay. Shipments of rats were received at two-week intervals. Each shipment went through five-day quarantine, one-week acclimation period, and one-week selection process, followed by five-weeks of drug or vehicle treatment to those pairs selected.
Rats were housed four per cage. Access to food was restricted to one hour per day after testing on Monday through Thursday. After testing on Friday, rats had free access to food until being fasted again on Sunday. At no time were the rats deprived of water. The food deprivation periods used had little effect on weight gain as the average weight of rats was about 300 g at the end of the study. At the conclusion of experiment rats were sacrificed by decapitation, the trunk blood and brains were collected for in vitro experiments and drug concentration measurements.
The basic testing apparatus consisted of two chambers connected with a tunnel only large enough to allow one rat to pass through at a time. On the floor, at the mid-point of the tunnel was a container of sweetened milk. This basic apparatus was replicated, so that a total of four pairs of rats can be video tracked simultaneously. The camera can distinguish rats marked by different colors. Thus, the rats' heads were colored for the purpose of video tracking, red in one cage and yellow in the other cage. Only one animal at a time can have comfortable access to the feeder, but both animals can drink milk during the five-minute daily session. During the five-minute daily sessions, time spent in the feeder zone by each rat was recorded by the video tracking software and saved into a text file.
The test began with a random assignment of rats into pairs. Each member of a pair was placed in an opposite chamber of the testing apparatus. The time spent in the feeder zone by each animal was recorded. During the first week (five days) of testing the animals habituate to the new environment. Dominance was assigned to the animal with the highest score during the second week of testing if three criteria were achieved. First, there must have been a significant difference (two-tailed t-test, P<0.05) between the average daily drinking scores of both animals. Second, the dominant animal score must have been at least 25% greater than the submissive animal's score. Finally, there must have been no “reversals” during the pair selection week where the putative submissive rat out-scored its dominant partner on isolated occasions. Ideally there were minimal reversals during the acclimation week as well. About twenty-five to thirty-three percent of the initial animal pairs achieved these criteria and only these pairs were continued in the study.
Significant differences between time spent on the feeder by dominant and submissive rats were determined by ANOVA using GraphPad Prism software (GraphPad Software, Inc. San Diego, Calif.) followed by a two-tailed t-test (P<0.05). Comparisons were made between treatment groups using normalized dominance level values in paired animals. The dominance level is a value that measures social relation between paired subjects. Dominance level (DL)=FTD−FTS where FTD is the feeder time of dominant rats and FTS is the feeder time of submissive rats. The normalization was conducted according to the formula: Dominance Level (week n in %)=(Dominance Level (week n))/(Dominance Level (week 2) […]

Each structure is given as a SMILES string. Read-outs that look alike come from different tables or passages of the source.

As for `O=C1Nc2ccc(Cl)cc2C(c2ccccc2Cl)=NC1O` (stereo not shown) [Lorazepam, lorazepam, reference compound], the “effect on immobility time” value with Male Sprague Dawley rats (1 mg/kg p.o., negative control) is “no significant effect”.

In the case of `COc1ccc(C(CN(C)C)C2(O)CCCCC2)cc1` (stereo not shown) [Venlafaxine, venlafaxine], the “treatment time until increase in sucrose intake reached statistical significance vs Week 0” value in the assay on Male Wistar rats was “four weeks”. Further, the “Immobility during 5 min: Week 5 Mean ± SD” value came to 181.8 ± 27.6 in assay [1] (non-stressed) and 190.4 ± 36.8 in assay [1] (stressed).

Broadly, the ED50 is the midpoint of the dose-response relation. For the compound `CNCCCN1c2ccccc2CCc2ccccc21` [DMI, desipramine, reference compound], the ED50 in the assay on CH3/HeJ mice (read-out: Immobility ED50) came out at 27.4 mg/kg; in the assay on CH3/HeJ mice (read-out: Mobility ED50) it was 24.4 mg/kg; in the assay on Male Sprague Dawley rats (Rattus norvegicus, po, 5 min, p.o., three administrations, 5-minute test session, read-out: ED50 (immobility)) it was 2 ± 0.1 mg/kg. Also, the “Emax (immobility)” value with Male Sprague Dawley rats (p.o., immobility) amounted to 50.0 ± 8.4 s.

Take `CN(C)CCCN1c2ccccc2CCc2ccccc21` [Imipramine, imipramine, reference compound]: the “treatment time until increase in sucrose intake reached statistical significance vs Week 0” value in the assay on Male Wistar rats is “four weeks”.

For the compound `CNCCC(Oc1ccc(C(F)(F)F)cc1)c1ccccc1` (stereo not shown) [fluoxetine, reference compound], in the assay with submissive rats, the “loss of significant difference between dominant and submissive rats” value was “lost after third week of treatment”.
